Test results as given in ChEMBL document CHEMBL5463722, “Data for DCP probe BI-5524” (2023).
Activity calls are given as the source filed them. The calls are words filed in the database; no cut-off is given here.

Columns and labels:
[1] = target: Kappa-type opioid receptor (Homo sapiens) (UniProt P41145); experiment: kappa (KOP) Eurofins-Cerep binding assay; settings: Compound concentration 10.0 uM
[2] = target: Prostaglandin G/H synthase 2 (Homo sapiens) (UniProt P35354); experiment: Inhibitor of COX-2 in the Eurofins Cerep SafetyScreen44 (BI) by Fluorimetry (Cerep_4186); settings: Compound concentration 10.0 uM
[3] = target: Androgen receptor (Homo sapiens) (UniProt P10275); settings: Compound concentration 10.0 uM
Description: Activity against ANDROGEN/H in the Eurofins Cerep SafetyScreen44 (BI) by Radioactive Assay (Cerep_933)

[4] = target: cGMP-inhibited 3',5'-cyclic phosphodiesterase 3A (Homo sapiens) (UniProt Q14432); experiment: Inhibitor of PDE3A in the Eurofins Cerep SafetyScreen44 (BI) by HTRF-homogeneous time resolved fluoresce (Cerep_4072); settings: Compound concentration 10.0 uM
[5] = target: Tyrosine-protein kinase Lck (Homo sapiens) (UniProt P06239); experiment: Inhibitor of LCK_CE in the Eurofins Cerep SafetyScreen44 (BI) by lanthanide chelation excitation (Cerep_2906); settings: Compound concentration 10.0 uM
[6] = target: MAO-A (amine oxidase [flavin-containing] A) (Homo sapiens, UniProt P21397); experiment: Agonist activity in the Eurofins Cerep SafetyScreen44 (BI) against MAO-A_ANTAG by Scintillation counting (Cerep_443); parameters: scale not given: the % may be the effect or the level left; settings: rat; compound concentration 10 uM; target entry is the homologue from another species; read-out: % Ctrl
[7] = target: L-type calcium channel (Cav1.2, alpha-1C), dihydropyridine site (Rattus norvegicus, UniProt P22002); experiment: Inhibitor of CA+/DHPSI/R in the Eurofins Cerep SafetyScreen44 (BI) by Radioactive Assay (Cerep_161); format: protein assay; parameters: scale not given: the % may be the effect or the level left; settings: rat brain, probe [3H](+)PN200-110, compound concentration 10 uM, read-out: % Ctrl
Sequence of L-type calcium channel (Cav1.2, alpha-1C), dihydropyridine site (P22002 whole entry): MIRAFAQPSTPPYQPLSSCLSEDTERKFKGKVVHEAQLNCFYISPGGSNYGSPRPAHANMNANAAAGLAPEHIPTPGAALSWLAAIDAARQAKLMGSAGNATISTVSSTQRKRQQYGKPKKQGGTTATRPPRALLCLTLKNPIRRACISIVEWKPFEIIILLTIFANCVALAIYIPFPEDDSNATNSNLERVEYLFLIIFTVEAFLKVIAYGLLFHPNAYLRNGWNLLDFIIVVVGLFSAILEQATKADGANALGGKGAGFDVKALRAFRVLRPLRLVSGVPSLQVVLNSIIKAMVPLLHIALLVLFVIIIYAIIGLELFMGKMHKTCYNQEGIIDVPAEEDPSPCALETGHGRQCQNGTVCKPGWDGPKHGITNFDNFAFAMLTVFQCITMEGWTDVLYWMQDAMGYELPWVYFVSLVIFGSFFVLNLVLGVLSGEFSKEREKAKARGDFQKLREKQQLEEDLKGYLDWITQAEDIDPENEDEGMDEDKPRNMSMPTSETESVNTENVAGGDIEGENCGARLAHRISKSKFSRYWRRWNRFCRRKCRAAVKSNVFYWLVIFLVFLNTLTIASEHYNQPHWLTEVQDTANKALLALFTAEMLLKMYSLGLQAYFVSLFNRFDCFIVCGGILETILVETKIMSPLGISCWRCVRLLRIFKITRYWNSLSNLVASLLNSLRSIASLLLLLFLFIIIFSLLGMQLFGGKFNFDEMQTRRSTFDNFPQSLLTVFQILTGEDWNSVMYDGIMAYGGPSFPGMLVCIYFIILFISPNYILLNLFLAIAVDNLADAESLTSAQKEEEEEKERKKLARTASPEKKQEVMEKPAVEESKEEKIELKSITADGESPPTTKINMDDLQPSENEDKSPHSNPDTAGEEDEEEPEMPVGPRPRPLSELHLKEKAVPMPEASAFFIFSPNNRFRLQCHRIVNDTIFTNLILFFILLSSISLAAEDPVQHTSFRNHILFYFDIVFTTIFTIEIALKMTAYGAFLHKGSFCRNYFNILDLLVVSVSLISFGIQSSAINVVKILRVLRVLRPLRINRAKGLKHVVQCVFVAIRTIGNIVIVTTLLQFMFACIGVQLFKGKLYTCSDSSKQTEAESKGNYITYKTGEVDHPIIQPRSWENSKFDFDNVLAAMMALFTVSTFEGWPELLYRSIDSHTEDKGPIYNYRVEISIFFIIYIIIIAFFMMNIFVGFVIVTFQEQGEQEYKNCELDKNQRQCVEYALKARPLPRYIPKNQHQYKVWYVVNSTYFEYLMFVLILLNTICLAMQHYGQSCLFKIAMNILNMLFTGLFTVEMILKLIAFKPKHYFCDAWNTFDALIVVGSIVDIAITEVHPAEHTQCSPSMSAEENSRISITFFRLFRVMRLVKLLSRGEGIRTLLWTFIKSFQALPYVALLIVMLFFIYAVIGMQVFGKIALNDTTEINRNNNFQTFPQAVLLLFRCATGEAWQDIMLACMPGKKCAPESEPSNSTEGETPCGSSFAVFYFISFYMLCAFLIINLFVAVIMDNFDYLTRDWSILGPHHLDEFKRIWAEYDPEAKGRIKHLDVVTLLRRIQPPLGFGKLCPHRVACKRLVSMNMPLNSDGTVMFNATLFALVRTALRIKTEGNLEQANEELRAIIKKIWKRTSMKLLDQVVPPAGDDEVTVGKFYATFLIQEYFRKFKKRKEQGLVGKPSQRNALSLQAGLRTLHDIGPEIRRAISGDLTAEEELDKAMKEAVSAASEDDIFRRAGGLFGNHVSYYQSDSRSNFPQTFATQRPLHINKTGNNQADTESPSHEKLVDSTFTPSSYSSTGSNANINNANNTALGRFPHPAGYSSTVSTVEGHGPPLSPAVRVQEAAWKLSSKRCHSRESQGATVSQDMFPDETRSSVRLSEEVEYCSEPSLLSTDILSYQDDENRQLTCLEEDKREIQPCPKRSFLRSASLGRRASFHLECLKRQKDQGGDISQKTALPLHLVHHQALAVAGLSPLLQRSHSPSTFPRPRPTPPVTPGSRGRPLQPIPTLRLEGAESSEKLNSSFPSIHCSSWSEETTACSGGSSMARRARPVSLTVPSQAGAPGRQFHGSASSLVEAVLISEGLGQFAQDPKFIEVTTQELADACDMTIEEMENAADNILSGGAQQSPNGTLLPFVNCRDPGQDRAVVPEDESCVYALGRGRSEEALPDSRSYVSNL

[8] = target: Cannabinoid receptor 2 (Homo sapiens) (UniProt P34972); experiment: Activity against CB2/PERIPH/H in the Eurofins Cerep SafetyScreen44 (BI) by Radioactive Assay (Cerep_37); settings: Compound concentration 10.0 uM
[9] = target: GABA-A receptor; anion channel (Rattus norvegicus) (UniProt O09028+P15431+P18506+P18508+P19969+P20236+P23574+P23576+P28471+P28473+P30191+P62813+P63079+P63138+Q91ZM7+Q9ES14); experiment: Inhibitor of GABA/NS/R in the Eurofins SafetyScreen44 (BI) by Radioactive Assay (Cerep_60); format: protein-complex assay; settings: Compound concentration 10.0 uM
[10] = target: Neuropeptide Y receptor type 2 (Homo sapiens) (UniProt P49146); experiment: Y2 Eurofins-Cerep binding assay; parameters: ligand concentration 0.015 nM; settings: Compound concentration 10.0 uM
[11] = target: D(4) dopamine receptor (Homo sapiens) (UniProt P21917); experiment: D4.4 Eurofins-Cerep binding assay; settings: Compound concentration 10.0 uM
[12] = target: Muscarinic acetylcholine receptor M5 (Homo sapiens) (UniProt P08912); experiment: M5 Eurofins-Cerep binding assay; settings: Compound concentration 10.0 uM
[13] = target: Type-1 angiotensin II receptor (Homo sapiens) (UniProt P30556); experiment: AT1 Eurofins-Cerep binding assay
Sequence of Type-1 angiotensin II receptor (Homo sapiens) (P30556 whole entry): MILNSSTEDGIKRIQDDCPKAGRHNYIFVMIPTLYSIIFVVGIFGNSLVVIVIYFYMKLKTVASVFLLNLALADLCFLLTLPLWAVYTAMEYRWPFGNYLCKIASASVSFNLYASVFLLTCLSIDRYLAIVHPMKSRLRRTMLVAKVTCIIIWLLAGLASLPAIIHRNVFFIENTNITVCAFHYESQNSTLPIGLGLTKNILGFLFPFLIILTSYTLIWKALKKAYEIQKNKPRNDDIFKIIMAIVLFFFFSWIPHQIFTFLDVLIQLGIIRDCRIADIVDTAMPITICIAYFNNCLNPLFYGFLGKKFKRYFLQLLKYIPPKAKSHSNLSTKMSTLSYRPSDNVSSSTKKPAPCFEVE

[14] = target: L-type calcium channel (Cav1.2, alpha-1C), CA+/VERSI/R (Rattus norvegicus, UniProt P22002); experiment: Inhibitor of CA+/VERSI/R in the Eurofins SafetyScreen44 (BI) by Radioactive Assay (Old_Cerep_11); parameters: scale not given: the % may be the effect or the level left; settings: compound concentration 10 uM, read-out: % Ctrl
Sequence of L-type calcium channel (Cav1.2, alpha-1C), CA+/VERSI/R (P22002 whole entry): as the sequence (P22002 whole entry) above

[15] = target: Prostaglandin E2 receptor EP2 subtype (Homo sapiens) (UniProt P43116); experiment: Agonist activity in the Eurofins SafetyScreen44 (BI) against EP2(H) by Scintillation counting (Old_Cerep_18); settings: Compound concentration 10.0 uM
[16] = target: B2 bradykinin receptor (Homo sapiens) (UniProt P30411); experiment: Activity against B2/HUM in the Eurofins SafetyScreen44 (BI) by Radioactive Assay (Old_Cerep_8)
Sequence of B2 bradykinin receptor (Homo sapiens) (P30411 whole entry): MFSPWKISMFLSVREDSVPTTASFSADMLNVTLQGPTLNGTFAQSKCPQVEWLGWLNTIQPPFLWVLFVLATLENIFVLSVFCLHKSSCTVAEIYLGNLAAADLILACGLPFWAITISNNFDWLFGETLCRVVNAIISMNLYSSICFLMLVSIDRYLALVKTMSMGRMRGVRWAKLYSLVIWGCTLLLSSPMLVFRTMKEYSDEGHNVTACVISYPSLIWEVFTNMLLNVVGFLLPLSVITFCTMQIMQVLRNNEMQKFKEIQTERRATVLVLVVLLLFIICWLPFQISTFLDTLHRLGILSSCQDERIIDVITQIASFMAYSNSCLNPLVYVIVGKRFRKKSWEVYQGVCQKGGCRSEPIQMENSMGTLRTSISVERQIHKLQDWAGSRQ

[17] = target: C-C chemokine receptor type 1 (Homo sapiens) (UniProt P32246); experiment: Activity against CCR1/H in the Eurofins SafetyScreen44 (BI) (Old_Cerep_14); settings: Compound concentration 10.0 uM
[18] = target: D(1B) dopamine receptor (Homo sapiens) (UniProt P21918); experiment: Activity against D5/H in the Eurofins SafetyScreen44 (BI) by Radioactive Assay (Old_Cerep_17); settings: Compound concentration 10.0 uM
[19] = target: Galanin receptor type 1 (Homo sapiens) (UniProt P47211); experiment: Activity against GAL1/H in the Eurofins SafetyScreen44 (BI) by Radioactive Assay (Old_Cerep_21); settings: Compound concentration 10.0 uM
[20] = target: Sodium-dependent serotonin transporter (Homo sapiens) (UniProt P31645); experiment: Activity against 5HTTRANS/H in the Eurofins SafetyScreen44 (BI) by Radioactive Assay (Old_Cerep_4); settings: Compound concentration 10.0 uM
[21] = target: Substance-P receptor (Homo sapiens) (UniProt P25103); experiment: NK1 Eurofins-Cerep binding assay; settings: Compound concentration 10.0 uM
Sequence of Substance-P receptor (Homo sapiens) (P25103 whole entry): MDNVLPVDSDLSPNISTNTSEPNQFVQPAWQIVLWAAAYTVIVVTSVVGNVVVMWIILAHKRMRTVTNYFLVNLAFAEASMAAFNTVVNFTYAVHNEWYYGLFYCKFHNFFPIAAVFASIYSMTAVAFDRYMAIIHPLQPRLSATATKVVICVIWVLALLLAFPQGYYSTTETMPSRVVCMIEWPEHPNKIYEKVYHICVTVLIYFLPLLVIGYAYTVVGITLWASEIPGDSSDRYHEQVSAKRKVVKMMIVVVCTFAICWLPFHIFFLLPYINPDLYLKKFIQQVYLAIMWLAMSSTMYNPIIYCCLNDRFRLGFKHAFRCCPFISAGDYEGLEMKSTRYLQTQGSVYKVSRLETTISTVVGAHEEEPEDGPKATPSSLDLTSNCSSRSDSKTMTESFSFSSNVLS

[22] = target: Platelet-derived growth factor receptor (Mus musculus) (UniProt P05622+P26618); experiment: Activity against PDGF/M in the Eurofins SafetyScreen44 (BI) (Old_Cerep_33); format: protein-complex assay; settings: Compound concentration 10.0 uM
[23] = target: Glutamate NMDA receptor (Rattus norvegicus) (UniProt P35439+Q00959+Q00960+Q00961+Q62645+Q8VHN2+Q9R1M7); experiment: PCP Eurofins-Cerep binding assay; format: protein-complex assay; settings: Compound concentration 10.0 uM
Neutrophil elastase = Neutrophil elastase (Mus musculus, UniProt Q3UP87); experiment: ELANE inhibitor assay (mouse)
[24] = target: Galanin receptor type 2 (Homo sapiens) (UniProt O43603); experiment: Inhibitor of GAL2/H in the Eurofins SafetyScreen44 (BI) by Radioactive Assay (Old_Cerep_22); settings: Compound concentration 10.0 uM
Sequence of Galanin receptor type 2 (Homo sapiens) (O43603 whole entry): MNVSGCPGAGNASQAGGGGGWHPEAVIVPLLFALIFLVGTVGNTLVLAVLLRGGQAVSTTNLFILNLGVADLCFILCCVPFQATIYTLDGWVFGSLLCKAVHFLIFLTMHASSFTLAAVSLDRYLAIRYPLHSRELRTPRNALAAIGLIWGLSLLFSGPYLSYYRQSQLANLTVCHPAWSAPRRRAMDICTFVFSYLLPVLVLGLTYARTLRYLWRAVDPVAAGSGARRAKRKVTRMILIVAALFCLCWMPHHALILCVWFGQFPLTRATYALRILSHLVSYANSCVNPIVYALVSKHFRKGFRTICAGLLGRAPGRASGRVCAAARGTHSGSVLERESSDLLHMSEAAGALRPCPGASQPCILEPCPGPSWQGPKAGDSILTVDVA

[25] = target: Gastrin/cholecystokinin type B receptor (Homo sapiens) (UniProt P32239); experiment: Activity against CCKB/H in the Eurofins SafetyScreen44 (BI) by Radioactive Assay (Old_Cerep_13); settings: Compound concentration 10.0 uM
Sequence of Gastrin/cholecystokinin type B receptor (Homo sapiens) (P32239 whole entry): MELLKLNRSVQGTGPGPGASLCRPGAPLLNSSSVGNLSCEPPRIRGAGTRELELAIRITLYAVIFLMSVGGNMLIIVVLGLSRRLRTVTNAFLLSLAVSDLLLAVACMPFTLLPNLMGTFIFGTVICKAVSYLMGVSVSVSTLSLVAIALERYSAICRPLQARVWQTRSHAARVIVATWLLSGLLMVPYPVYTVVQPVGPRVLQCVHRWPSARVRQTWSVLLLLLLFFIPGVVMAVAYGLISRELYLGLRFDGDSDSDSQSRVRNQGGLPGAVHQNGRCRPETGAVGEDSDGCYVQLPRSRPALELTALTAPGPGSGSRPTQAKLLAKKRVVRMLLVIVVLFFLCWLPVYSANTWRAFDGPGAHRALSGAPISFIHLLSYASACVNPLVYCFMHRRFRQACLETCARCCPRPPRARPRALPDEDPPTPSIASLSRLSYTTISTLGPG

[26] = target: C-X-C chemokine receptor type 2 (Homo sapiens) (UniProt P25025); experiment: CXCR2 (IL-8B) Eurofins-Cerep binding assay; settings: Compound concentration 10.0 uM
[27] = target: Somatostatin receptor type 5 (Mus musculus) (UniProt O08858); experiment: Activity against SOMATOS/M in the Eurofins SafetyScreen44 (BI) by Radioactive Assay (Old_Cerep_36); settings: Compound concentration 10.0 uM
Sequence of Somatostatin receptor type 5 (Mus musculus) (O08858 whole entry): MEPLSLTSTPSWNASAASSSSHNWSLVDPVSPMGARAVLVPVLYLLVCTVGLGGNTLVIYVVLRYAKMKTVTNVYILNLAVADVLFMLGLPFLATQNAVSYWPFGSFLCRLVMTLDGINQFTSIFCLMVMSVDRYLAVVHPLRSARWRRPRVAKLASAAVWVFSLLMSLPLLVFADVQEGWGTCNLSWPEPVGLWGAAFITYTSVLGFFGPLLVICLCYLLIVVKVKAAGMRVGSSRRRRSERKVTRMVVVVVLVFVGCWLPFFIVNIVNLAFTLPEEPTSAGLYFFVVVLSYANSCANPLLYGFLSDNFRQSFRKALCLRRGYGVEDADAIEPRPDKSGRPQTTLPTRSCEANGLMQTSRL

[28] = target: Endothelin receptor type B (Homo sapiens) (UniProt P24530); experiment: Activity against ETB/H in the Eurofins SafetyScreen44 (BI) by Radioactive Assay (Old_Cerep_20); settings: Compound concentration 10.0 uM
[29] = target: Prostacyclin receptor (Homo sapiens) (UniProt P43119); experiment: Activity against PGI2/H in the Eurofins SafetyScreen44 (BI) by Radioactive Assay (Old_Cerep_34); settings: Compound concentration 10.0 uM
[30] = target: Neuromedin-K receptor (Homo sapiens) (UniProt P29371); experiment: Agonist activity in the Eurofins SafetyScreen44 (BI) against NK3/H by Radioligand Binding (Old_Cerep_26); settings: Compound concentration 10.0 uM
[31] = target: Pituitary adenylate cyclase-activating polypeptide type I receptor (Homo sapiens) (UniProt P41586); experiment: Activity against PACAP/HU in the Eurofins SafetyScreen44 (BI) by Radioactive Assay (Old_Cerep_31); settings: Compound concentration 10.0 uM
Sequence of Pituitary adenylate cyclase-activating polypeptide type I receptor (Homo sapiens) (P41586 21-468 limits assumed): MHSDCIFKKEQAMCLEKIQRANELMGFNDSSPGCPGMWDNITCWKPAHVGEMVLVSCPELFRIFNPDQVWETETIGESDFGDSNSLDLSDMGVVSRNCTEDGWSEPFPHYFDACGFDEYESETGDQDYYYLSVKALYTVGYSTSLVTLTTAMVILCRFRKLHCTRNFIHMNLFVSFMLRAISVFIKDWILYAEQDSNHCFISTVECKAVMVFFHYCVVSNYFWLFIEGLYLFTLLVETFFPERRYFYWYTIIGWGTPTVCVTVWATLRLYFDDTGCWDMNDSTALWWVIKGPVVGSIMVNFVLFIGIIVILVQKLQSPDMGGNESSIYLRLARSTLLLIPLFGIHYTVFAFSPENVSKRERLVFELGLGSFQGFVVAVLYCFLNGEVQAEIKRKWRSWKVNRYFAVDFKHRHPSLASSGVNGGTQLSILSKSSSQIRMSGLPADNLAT

[32] = target: Neuropeptide Y receptor type 1 (Homo sapiens) (UniProt P25929); experiment: Y1 Eurofins-Cerep binding assay; parameters: ligand concentration 0.025 nM; settings: Compound concentration 10.0 uM
[33] = target: 5-hydroxytryptamine receptor 2C (Homo sapiens) (UniProt P28335); experiment: Activity against 5HT2C/H in the Eurofins SafetyScreen44 (BI) (Cerep_1003); settings: Compound concentration 10.0 uM

For `CC(C)(O)CNC(=O)N1C(=O)N(c2cccc(C(F)(F)F)c2)C2=C(C(=O)CC2)[C@@H]1c1ccc(C#N)cc1`, the residual activity [1] was 94%, the residual activity [2] was 101% and the residual activity [3] was 101%. The residual activity [4] was 97%, the residual activity [5] was 92% and the activity at 10 µM [6] was 101% (not active). The activity at 10 µM [7] was 104% (not active) and the residual activity [8] was 83%.

`CC(C)(O)CNC(=O)N1C(=O)N(c2cccc(C(F)(F)F)c2)C2=C(C(=O)CC2)[C@H]1c1ccc(C#N)cc1` was tested, and the residual activity [9] was 103%, the residual activity [10] was 113% and the residual activity [11] was 98%. The residual activity [12] was 92%, the residual activity ([13]; Compound concentration 10.0 uM) was 116% and the residual activity ([13]; Compound concentration 30.0 uM) was 92%. The activity at 10 µM [14] was 102% (not active), the residual activity [15] was 93% and the residual activity ([16]; Compound concentration 10.0 uM) was 107%. For the same compound, the residual activity ([16]; Compound concentration 30.0 uM) was 97%, the residual activity [17] was 89% and the residual activity [18] was 103%. For the same compound, the residual activity [19] was 121%, the residual activity [20] was 108% and the residual activity [21] was 115%. For the same compound, the residual activity [22] was 103%, the residual activity [23] was 104% and the IC50 (Neutrophil elastase) was 12 nM (active). For the same compound, the residual activity [24] was 114%, the residual activity [25] was 106% and the residual activity [26] was 105%. The residual activity [27] was 114%, the residual activity [28] was 92% and the residual activity [29] was 123%. For the same compound, the residual activity [30] was 102%, the residual activity [31] was 122% and the residual activity [32] was 107%. It also gave a residual activity [33] of 94%.
